We go through one compound from US10093684B2, “Substituted imidazo[1,2-a]pyrazines as Syk inhibitors” (Gilead Connecticut, Inc., priority 2008, dated 2018).

SMILES strings stand for the structures.

The compound `CC(C)n1cc(Nc2nc(-c3ccc4cn[nH]c4c3)cn3ccnc23)cn1` [Compound 5, 6-(1H-indazol-6-yl)-N-(1-isopropyl-1H-pyrazol-4-yl)imidazo[1,2-a]pyrazin-8-amine] showed a melting point of more than 250 °C.

One may read the melting point as the temperature, or range, at which the solid turns liquid.
